Assay results as given in article PMC11476419, “Analysis of Punicalin and Punicalagin Interaction with PDIA3 and PDIA1” (International Journal of Molecular Sciences, 2024).

Legend:
PDIA1 [1] = target: T1, PDIA1 (Homo sapiens, UniProt P07237); experiment: Glutathione reduction assay (di-E-GSSG), disulfide reductase activity; assay type: biochemical; settings: di-E-GSSG substrate, PDIA1 20 nM, reducing conditions
T1 construct: The mature human PDIA1 with an N-terminal His6x-tag was expressed and purified; His6 (N); made in house
T1 sequence (P07237 18-508): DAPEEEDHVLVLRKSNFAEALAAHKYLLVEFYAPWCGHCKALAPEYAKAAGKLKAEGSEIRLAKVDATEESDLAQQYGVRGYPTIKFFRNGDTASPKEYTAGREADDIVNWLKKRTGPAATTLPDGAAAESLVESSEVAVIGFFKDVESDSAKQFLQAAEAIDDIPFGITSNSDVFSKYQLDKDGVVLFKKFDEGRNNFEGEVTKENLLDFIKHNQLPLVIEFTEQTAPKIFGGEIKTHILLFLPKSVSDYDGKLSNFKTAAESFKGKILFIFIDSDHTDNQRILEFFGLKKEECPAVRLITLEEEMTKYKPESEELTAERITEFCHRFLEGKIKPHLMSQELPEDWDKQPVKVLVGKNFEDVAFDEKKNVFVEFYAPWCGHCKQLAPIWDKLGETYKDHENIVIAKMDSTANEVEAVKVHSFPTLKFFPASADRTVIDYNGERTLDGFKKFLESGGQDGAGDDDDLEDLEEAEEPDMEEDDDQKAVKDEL
Procedure: (§1) The enzymatic activity of PDIA proteins was evaluated by glutathione reduction and insulin turbidity assays. PDIA1 and PDIA3 are proteins capable of catalyzing oxidation-reduction and isomerization reactions through thiol groups and disulfide bonds. Because the action of punicalagin on the reductase activity of the two proteins was previously evaluated by glutathione reduction assay, the same assay was repeated using punicalin to compare the effect of both molecules on PDIs.
(§2) Di-eosin glutathione disulfide (di-E-GSSG) was synthesized by the reaction of eosin isothiocyanate with oxidized glutathione (GSSG) and used as a fluorogenic substrate of PDIs to monitor disulfide reductase activity according to the method of Raturi and Mutus, with some modifications. Protein activity was evaluated by monitoring the emission fluorescence increase (λem = 545 nm and λex = 525 nm), and the effect of punicalin (concentration ranging from 2 to 50 µM) was tested.
(§3) In both assays, the inhibition constants were extrapolated by GraphPad Prism 8.0 software (GraphPad Software, San Diego, CA, USA), plotting the obtained data as logarithm dose–response curves.

PDIA3 [2] = target: T2, PDIA3 (Homo sapiens, UniProt P30101); experiment: as above; assay type: biochemical; settings: di-E-GSSG substrate, PDIA3 20 nM, reducing conditions
T2 construct: The mature recombinant form (devoid of the N-terminal presence) of the human PDIA3 protein was expressed and purified; made in house
T2 sequence (P30101 25-505): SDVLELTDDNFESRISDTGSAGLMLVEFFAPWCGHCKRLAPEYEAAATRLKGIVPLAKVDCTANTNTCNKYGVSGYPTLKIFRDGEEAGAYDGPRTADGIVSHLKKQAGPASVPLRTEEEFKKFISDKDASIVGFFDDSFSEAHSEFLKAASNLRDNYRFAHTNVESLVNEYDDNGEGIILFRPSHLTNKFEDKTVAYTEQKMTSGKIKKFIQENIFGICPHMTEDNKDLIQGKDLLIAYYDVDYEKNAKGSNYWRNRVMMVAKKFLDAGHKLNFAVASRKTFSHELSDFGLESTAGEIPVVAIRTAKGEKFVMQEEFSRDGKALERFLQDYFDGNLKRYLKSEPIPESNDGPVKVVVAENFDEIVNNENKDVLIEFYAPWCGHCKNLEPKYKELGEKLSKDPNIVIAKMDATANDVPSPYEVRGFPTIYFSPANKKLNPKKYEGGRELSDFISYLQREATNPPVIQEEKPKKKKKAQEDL
Procedure: as §1, §2, §3

PDIA3 [3] = target: T2, PDIA3; experiment: Insulin turbidity assay, disulfide reductase activity; assay type: biochemical; settings: insulin substrate, PDIA3 1600 nM, reducing conditions
Procedure: To further evaluate the inhibitory effect of punicalin and punicalagin on the enzymatic activity of the two proteins, we performed a different assay using insulin, a physiologically more appropriate substrate. The results obtained are reported in Figure 4 and show again a lesser inhibitory effect of punicalin compared to punicalagin, as observed with the glutathione-based assay.
PDI disulfide reductase activity was assayed by measuring the reduction of insulin catalyzed by PDIs with DTT. A 50 μM stock solution of each PDI was reduced using TCEP (5 mM final concentration) for 90 min at room temperature. Aliquots of the stock solution were diluted in the incubation mixture (PDIA1 1.6 µM and PDIA3 3.2 µM) containing sodium phosphate buffer (100 mM sodium phosphate, 2 mM EDTA, pH 7.0) added with punicalin/punicalagin (concentration ranging from 0 to 50 µM) and incubated at 37 °C for 1 h. After incubation, an equal volume of the 2× reaction mixture (consisting of DTT 50 μM and human insulin 0.32 mM) was added. Protein activity was evaluated by monitoring the increase in turbidity of the solutions at 600 nm.
as §3

PDIA1 [4] = target: T1, PDIA1; experiment: Differential scanning fluorimetry (protein thermal shift); assay type: binding; settings: PDIA1, compound 20 µM
Procedure: (§4) The effect of punicalin and punicalagin on the stability of both proteins was evaluated by differential scanning fluorimetry (DSF). Initially, PDIA1 and PDIA3 were incubated at 25 °C for 20 min with both substances at 5 µM and 20 µM concentrations. […] The reading was optimized at intervals of 0.2 °C every 5 s. Once the fluorescence profile was obtained, the data were analyzed with the GraphPad prism program, by either fitting data with a Boltzmann equation or calculating the first derivative. In DSF analyses, a gradual increase in fluorescence is observed, due to a conformational change in the protein, which reaches a maximum value and then decreases because of protein precipitation.
(§5) To evaluate Tm, we focused the attention on the main transition, and thus we fitted, with a Boltzmann equation, the data in the range of 25–55 °C for PDIA3 and in the range of 45–70 °C for PDIA1. Again, the two substances show a destabilizing effect, which was more evident for PDIA3 than for PDIA1. In fact, punicalagin and punicalin at a 20 µM concentration cause a shift of Tm of at least 6 °C in the case of PDIA3, while this is approximately 3 °C for PDIA1 (Figure 7).
(§6) Protein stability in the absence and presence of punicalagin/punicalin was tested by means of the fluorescence-based thermal stability assay or differential scanning fluorimetry (DSF) developed by Pantoliano and coworkers. DSF records the fluorescence emission signal from the binding of a dye (SYPRO orange) to the exposed hydrophobic patches upon protein unfolding. Fluorescence measurements were performed using a CFX96 Connect RT-PCR instrument (BioRad, Hercules, CA, USA). Aliquots of 18 μL of protein solution (2 μM), freshly diluted in Tris Buffered saline (50 mM TrisHCl, pH 8.0, 150 mM NaCl) containing 0.1 mM DTT, 0.2 mM EDTA, and 1: 1000 dilution of SYPRO Orange (50 mM stock solution in DMSO), were distributed in a 96-well plate. Sample wells were added with punicalagin or punicalin at a final concentration of 5 uM or 20 μM by adding 2 μL of a 10-fold concentrated freshly prepared stock solution. As control, the protein solution was added with 2 μL of the dilution buffer. A melting point analysis was recorded by increasing the temperature from 25 to 70 °C with an increment of 0.2 °C every 5 s and reading, at each temperature, the fluorescence in fluorescence resonance energy transfer mode (FRET). Each measure was the average of three sample well readings, and each DSF experiment was repeated at least three times. To calculate Tm values, DSF data from the melting curve were exported and fitted to a Boltzmann equation using GraphPad software. The effect of punicalagin and punicalin was evaluated comparing the Tm values in the presence and absence of each molecule.

PDIA3 [5] = target: T2, PDIA3; experiment: as above; assay type: binding
Procedure: as §4, §5, §6

O=C1OC[C@H]2OC(O)[C@H](O)[C@@H](O)[C@@H]2OC(=O)c2cc(O)c(O)c(O)c2-c2c(O)c(O)c3oc(=O)c4c(c(O)c(O)c5oc(=O)c2c3c54)-c2c1cc(O)c(O)c2O (mixture of isomers) [Punicalin, punicalin]
IC50 (PDIA1 [1]): 58.3 µM
IC50 (PDIA3 [2]): 10.7 µM
IC50 (PDIA3 [3]): 28.7 µM
shift towards lower temperature of second main transition (first-derivative graph) (PDIA1 [4]): about 5 °C
shift of Tm (destabilizing, Boltzmann fit) (PDIA1 [4]; fit range 45–70 °C): approximately 3 °C
left shift of first transition (first-derivative graph) (PDIA3 [5]; PDIA3, compound 20 µM): about 3 °C
shift towards lower temperature of second transition (first-derivative graph) (PDIA3 [5]; PDIA3, compound 20 µM): more than 10 °C
shift of Tm (destabilizing, Boltzmann fit) (PDIA3 [5]; PDIA3, compound 20 µM, fit range 25–55 °C): at least 6 °C
Tm of PDIA3 after addition of compound (PDIA3 [5]; PDIA3 alone Tm 46 °C): below 40 °C
change in the thermal stability of PDIA3, shift (PDIA3 [5]; abstract statement): up to 8 °C
